Structures can show the parent of a compound that is named as a salt. Where two headings read alike, the source gives them in different places.

One series concerns HMC-1-8 cells. As to the kind of experiment: Antiproliferation assay (CellTiter-Glo, 72 h), HMC-1-8. The series is classed as cell-based. As to conditions: IC50, median, HMC-1-8, 72 h, read-out: Antiproli HMC-1-8 [M] median. The procedure:
Assessment of the Anti-Proliferative Effect of Compounds in Different Cell Lines
The impact of compounds on the proliferation of different cell lines was assessed using the CellTiter-Glo® Luminescent Cell Viability reagent from Promega (G7573).
In parallel, cells were plated in a reference (day 0) plate for time zero determination.
Rim wells were excluded. The cells were incubated for 72 h hours in a humidified incubator at 37° C. The day 0 plate was measured by adding 30 μL/well of CTG solution (CellTiter-Glo® Luminescent Cell Viability reagent, Promega G7573) to time zero wells in the reference plate followed by a 10 minutes incubation and luminescence reading at 0.1 ms. using the PHERAstar FS microplate reader (BMG Labtech).
After 72 h incubation, the treated plates were measured in the same way as the day 0 plate mentioned above.
(In general: Cellular ATP, detected with luciferase, serves as a proxy for viable cell number.)

For another series, the system named is AMO-1 cells. In words: Antiproliferation assay (CellTiter-Glo, 72 h), AMO-1. In kind it is cell-based. To be noted: IC50, median, AMO-1, 72 h, read-out: Antiproli AMO-1 [M] median. Put shortly:
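Treated cells sat 72 h in a humidified 37 °C incubator, outer wells unused, before CellTiter-Glo reagent and a 10 min wait preceded luminescence reading; identical measurement of a parallel day 0 plate defined time zero.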

Series [1] deals with SUDHL10 cells. In words: Induction of caspase-3/7 activity (Caspase-Glo 3/7), SUDHL10. The series is classed as cell-based. To be noted: EC50, median, SUDHL10, 3 h treatment. Summed up: (§1)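 Read-out: Caspase-Glo 3/7 signal, background-corrected against medium-only wells, taken after cells had been incubated with compounds for 3 h at 37 °C.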
The test system of series [2] is SUDHL5 cells. As to the kind of experiment: Induction of cytotoxicity (CellTiter-Glo, 5 h), SUDHL5. As to conditions: SUDHL5, 5 h.
Series [3] concerns SUDHL10 cells. As to the kind of experiment: Induction of cytotoxicity (CellTiter-Glo, 5 h), SUDHL10. As to conditions: SUDHL10, 5 h.
The test system of series [4] is SUDHL5 cells. As to the kind of experiment: Induction of caspase-3/7 activity (Caspase-Glo 3/7), SUDHL5. The series is classed as cell-based. As to conditions: EC50, median, SUDHL5, 3 h treatment. Summed up: as §1
Where [5] appears, read: Homo sapiens, SU-DHL10, 5 h, read-out: Cytotox SUDHL10 [M] (median), IC50, median.
Where [6] appears, read: read-out: Cytotox SUDHL5 [M] (median), IC50, median.

With `Cc1c2c(nn1C)CN(C)CCCCn1c(C(=O)O)c(CCCOc3cccc4ccccc34)c3ccc(Cl)c-2c31` (racemic) [Example 11, (rac)-4-chloro-2,3,14-trimethyl-7-[3-(naphthalen-1-yloxy)propyl]-10,11,12,13,14,15-hexahydro-2H-pyrazolo[3′,4′:8,9][1,6]diazacycloundecino[10,11,1-hi]indole-8-carboxylic acid], the IC50 in the series with HMC-1-8 cells (72 h) came to 4.2e-06 M; in the series with AMO-1 cells (Homo sapiens, AMO1, 72 h) it was 7.3e-07 M.

Regarding `Cc1c2c(nn1C)COCCC(F)(F)Cn1c(C(=O)O)c(CCCOc3cccc4cc(F)ccc34)c3ccc(Cl)c-2c31` (racemic) [Example 93, (rac)-4-Chloro-11,11-difluoro-7-{3-[(6-fluoronaphthalen-1-yl)oxy]propyl}-2,3-dimethyl-2,10,11,12,13,15-hexahydropyrazolo[4′,3′:9,10][1,6]oxazacycloundecino[8,7,6-hi]indole-8-carboxylic acid], the EC50 in the series with SUDHL10 cells [1] (Homo sapiens, SU-DHL10, 3 h) was 220 nM. For the same molecule, the IC50 was 3.5e-07 M with SUDHL5 cells [2] (Homo sapiens, SU-DHL-5, 5 h, read-out: Cytotox SUDHL5 [M] (median), IC50, median); 4.9e-06 M in the series on HMC-1-8 cells (72 h); 4.3e-07 M with SUDHL10 cells [3] (setting [5]); 1.2e-06 M in the series with AMO-1 cells (Homo sapiens, AMO1, 72 h).

On to `CCc1c2c(nn1C)CN(CCOC)CCCCn1c(C(=O)O)c(CCCOc3cccc4cc(F)ccc34)c3ccc(Cl)c-2c31` (racemic) [Example 131, (rac)-4-chloro-3-ethyl-7-{3-[(6-fluoronaphthalen-1-yl)oxy]propyl}-14-(2-methoxyethyl)-2-methyl-10,11,12,13,14,15-hexahydro-2H-pyrazolo[3′,4′:8,9][1,6]diazacycloundecino[10,11,1-hi]indole-8-carboxylic acid], for which the EC50 with SUDHL10 cells [1] (Homo sapiens, SU-DHL10, 3 h) was found to be 130 nM. In addition, the results for the IC50 in the series on HMC-1-8 cells (72 h) and in the series with SUDHL10 cells [3] (setting [5]) were 1.3e-06 M and 1.5e-07 M, respectively.

As for `CCc1c2c(nn1C)CN(CCCO)CCCCn1c(C(=O)O)c(CCCOc3cccc4cc(F)ccc34)c3ccc(Cl)c-2c31` (racemic) [Example 139, (rac)-4-chloro-3-ethyl-7-{3-[(6-fluoronaphthalen-1-yl)oxy]propyl}-14-(3-hydroxypropyl)-2-methyl-10,11,12,13,14,15-hexahydro-2H-pyrazolo[3′,4′:8,9][1,6]diazacycloundecino[10,11,1-hi]indole-8-carboxylic acid], the IC50 was 5.7e-06 M in the series on HMC-1-8 cells (72 h) and 4.4e-07 M in the series on AMO-1 cells (Homo sapiens, AMO1, 72 h).

As for `Cc1c2c(nn1C)COCC1CCC1Cn1c(C(=O)O)c(CCCOc3cccc4ccccc34)c3ccc(Cl)c-2c31` (single isomer, unassigned) [Example 81, 3-chloro-4,5-dimethyl-15-{3-[(naphthalen-1-yl)oxy]propyl}-5,7,9,9a,10,11,11a,12-octahydrocyclobuta[3,4]pyrazolo[4′,3′:9,10][1,6]oxazacycloundecino[8,7,6-hi]indole-14-carboxylic acid], the half-maximal effective concentration (EC50) in the series on SUDHL10 cells [1] (listed as 081) was determined as 6200 nM; in the series with SUDHL5 cells [4] (listed as 081) it was 7.4 µM. Besides, the IC50 with SUDHL5 cells [2] (read-out: Cytotox SUDHL5 [M] (median), IC50, median, listed as 081) was found to be 5.8e-06 M; with HMC-1-8 cells (listed as 081), 5.5e-06 M; with SUDHL10 cells [3] (read-out: Cytotox SUDHL10 [M] (median), IC50, median, listed as 081) it was 8.4e-06 M.

On to `Cc1c2c(nn1C)COCCn1c(C(=O)O)c(CCCOc3cccc4ccccc34)c3ccc(Cl)c-2c31` (single isomer, unassigned) [Example 88, 11-chloro-9,10-dimethyl-1-{3-[(naphthalen-1-yl)oxy]propyl}-4,5,7,9-tetrahydropyrazolo[4′,3′:7,8][1,4]oxazonino[6,5,4-hi]indole-2-carboxylic acid], for which the EC50 was determined as 4300 nM in the series on SUDHL10 cells [1] (Homo sapiens, SU-DHL10, 3 h) and 7.4 µM in the series with SUDHL5 cells [4] (Homo sapiens, SU-DHL-5, 3 h). Besides, the IC50 with HMC-1-8 cells (72 h) was 4.5e-06 M; in the series with SUDHL10 cells [3] (setting [5]), 4e-06 M; in the series on AMO-1 cells (Homo sapiens, AMO1, 72 h), 6.7e-06 M.

`CCc1c2c(nn1C)COCCCCn1c(C(=O)O)c(CCCOc3cccc4ccccc34)c3ccc(Cl)c-2c31` (single isomer, unassigned; enantiomer 1) [Example 20, 4-chloro-3-ethyl-2-methyl-7-[3-(naphthalen-1-yloxy)propyl]-2,10,11,12,13,15-hexahydropyrazolo[4′,3′:9,10][1,6]oxazacycloundecino[8,7,6-hi]indole-8-carboxylic acid (Enantiomer 1)] returned an EC50 in the series on SUDHL10 cells [1] (Homo sapiens, SU-DHL10, 3 h) of 390 nM. Further, the IC50 with HMC-1-8 cells (72 h) came out at 2.5e-06 M; in the series with SUDHL10 cells [3] (setting [5]) it was 6.9e-07 M; in the series on AMO-1 cells (Homo sapiens, AMO1, 72 h), 8.7e-07 M.

`CCc1nn(C)c2c1-c1c(Cl)ccc3c(CCCOc4cccc5cc(F)ccc45)c(C(=O)O)n(c13)CCCCOC2` (single isomer, unassigned; enantiomer 1) [Example 34, (+)-4-chloro-3-ethyl-7-{3-[(6-fluoronaphthalen-1-yl)oxy]propyl}-1-methyl-1,10,11,12,13,15-hexahydropyrazolo[4′,3′:9,10][1,6]oxazacycloundecino[8,7,6-hi]indole-8-carboxylic acid (Enantiomer 1)] yielded an EC50 with SUDHL10 cells [1] (Homo sapiens, SU-DHL10, 3 h) of 930 nM. Besides, the IC50 in the series with HMC-1-8 cells (72 h) came to 2e-06 M; in the series with AMO-1 cells (Homo sapiens, AMO1, 72 h), 1.4e-06 M.

On to `CCc1c2c(nn1C)CN(CCC(C)(C)O)CCCCn1c(C(=O)O)c(CCCOc3cccc4cc(F)ccc34)c3ccc(Cl)c-2c31` (single isomer, unassigned; enantiomer 1) [Example 140, 4-chloro-3-ethyl-7-{3-[(6-fluoronaphthalen-1-yl)oxy]propyl}-14-(3-hydroxy-3-methylbutyl)-2-methyl-10,11,12,13,14,15-hexahydro-2H-pyrazolo[3′,4′:8,9][1,6]diazacycloundecino[10,11,1-hi]indole-8-carboxylic acid (Enantiomer 1)], for which, in the series with HMC-1-8 cells (72 h), the IC50 was determined as 1.4e-06 M.

As for `CCc1c2c(nn1C)CN(CCN1CCOCC1)CCCCn1c(C(=O)O)c(CCCOc3cccc4cc(F)ccc34)c3ccc(Cl)c-2c31` (single isomer, unassigned; enantiomer 1) [Example 142, 4-chloro-3-ethyl-7-{3-[(6-fluoronaphthalen-1-yl)oxy]propyl}-2-methyl-14-[2-(morpholin-4-yl)ethyl]-10,11,12,13,14,15-hexahydro-2H-pyrazolo[3′,4′:8,9][1,6]diazacycloundecino[10,11,1-hi]indole-8-carboxylic acid (Enantiomer 1)], in the series on HMC-1-8 cells, the IC50 was 7.5e-07 M.

Turning to `CCc1nn(CCN2CCOCC2)c2c1-c1c(Cl)ccc3c(CCCOc4cccc5ccccc45)c(C(=O)O)n(c13)C/C=C\CN(C)C2` (single isomer, unassigned; enantiomer 2) [Example 44, (11Z)-4-chloro-3-ethyl-14-methyl-1-[2-(morpholin-4-yl)ethyl]-7-{3-[(naphthalen-1-yl)oxy]propyl}-10,13,14,15-tetrahydro-1H-pyrazolo[3′,4′:8,9][1,6]diazacycloundecino[10,11,1-hi]indole-8-carboxylic acid-ammonia salt (Enantiomer 2)], the IC50 was found to be 7e-07 M in the series on SUDHL5 cells [2] (setting [6]), 2.1e-06 M in the series with HMC-1-8 cells (72 h) and 1.1e-06 M in the series on AMO-1 cells.

In the case of `Cc1c2c(nn1CCCN1CCN(C)CC1)COCCCCn1c(C(=O)O)c(CCCOc3cccc4ccccc34)c3ccc(Cl)c-2c31` (single isomer, unassigned; enantiomer 2) [Example 50, (−)-4-chloro-3-methyl-2-[3-(4-methylpiperazin-1-yl)propyl]-7-{3-[(naphthalen-1-yl)oxy]propyl}-2,10,11,12,13,15-hexahydropyrazolo[4′,3′:9,10][1,6]oxazacycloundecino[8,7,6-hi]indole-8-carboxylic acid (Enantiomer 2)], the results for the IC50 in the series with SUDHL5 cells [2] (setting [6]), in the series with HMC-1-8 cells (72 h) and with AMO-1 cells were 4.4e-07 M, 3.1e-06 M and 1.3e-06 M, respectively. In the series on SUDHL5 cells [4], this molecule displayed an EC50 of 0.36 µM.

For the molecule `Cc1c2c(nn1C)COCCC(F)(F)Cn1c(C(=O)O)c(CCCOc3cccc4ccccc34)c3ccc(Cl)c-2c31` [Example 94, 4-chloro-11,11-difluoro-2,3-dimethyl-7-{3-[(naphthalen-1-yl)oxy]propyl}-2,10,11,12,13,15-hexahydropyrazolo[4′,3′:9,10][1,6]oxazacycloundecino[8,7,6-hi]indole-8-carboxylic acid N-ethylethanamine salt], the EC50 with SUDHL10 cells [1] (listed as 094) was found to be 3100 nM; in the series on SUDHL5 cells [4] (listed as 094) it was 1.6 µM. Besides, the IC50 with SUDHL5 cells [2] (read-out: Cytotox SUDHL5 [M] (median), IC50, median, listed as 094) was determined as 2.9e-06 M; with HMC-1-8 cells (72 h), 6.3e-06 M; with SUDHL10 cells [3] (read-out: Cytotox SUDHL10 [M] (median), IC50, median, listed as 094), 4.5e-06 M.

Usually EC50 stands for the concentration needed to bring the measured effect to its halfway point. High values mean lower potency in that assay, low ones higher potency in that assay.

Values taken from patent US11478451B1, “Macrocyclic chlorine substituted indole derivatives” (Bayer Aktiengesellschaft, priority 2017, dated 2022).
